Source: the supplement of paper PMC5844555

How the values were obtained:
Experiment in all cases: 3' UTR reporter interaction score (median-centred robust z-score of log2 firefly/Renilla activity); higher = less repression of the 3' UTR reporter
Details in all cases: HEK293T; 48 h
ZEB2 = test system: ZEB2
Outline: (§1)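 Firefly and Renilla luciferase activities were read 48 h post-transfection in HEK293T cells (10,000/well, 96-well plates). The cells had received 100 ng firefly luc2P reporter bearing the gene's 3' UTR, 20 ng Renilla pRL-TK control and 2.5 pmol miRNA mimic via DharmaFECT Duo. The interaction score, where more negative means interaction, is a per-plate robust z-score (median, median absolute deviation) of the log firefly/Renilla ratio, median-centred per miRNA and averaged over at least two independent screens.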

NOTCH1 = test system: NOTCH1
Outline: as §1

MYC = test system: MYC
Outline: as §1

MYT1L = test system: MYT1L
Outline: as §1

RB1 = test system: RB1
Outline: as §1

MYCN = test system: MYCN
Outline: as §1

BRCA2 = test system: BRCA2
Outline: as §1

HRAS = test system: HRAS
Outline: as §1

MYB = test system: MYB
Outline: as §1

PHOX2B = test system: PHOX2B
Outline: as §1

FBXW7 = test system: FBXW7
Outline: as §1

EZH2 = test system: EZH2
Outline: as §1

PHF6 = test system: PHF6
Outline: as §1

TP53 = test system: TP53
Outline: as §1

Row | Sequence | 3' UTR reporter interaction score (ZEB2) | 3' UTR reporter interaction score (NOTCH1) | 3' UTR reporter interaction score (MYC) | 3' UTR reporter interaction score (MYT1L) | 3' UTR reporter interaction score (RB1) | 3' UTR reporter interaction score (MYCN) | 3' UTR reporter interaction score (BRCA2) | 3' UTR reporter interaction score (HRAS) | 3' UTR reporter interaction score (MYB) | 3' UTR reporter interaction score (PHOX2B) | 3' UTR reporter interaction score (FBXW7) | 3' UTR reporter interaction score (EZH2) | 3' UTR reporter interaction score (PHF6) | 3' UTR reporter interaction score (TP53)
1 | UAAGUGCUUCCAUGUUUUAGUAG | 1.24 | 1.36 | -0.0722 | -1.12 | 0.351 | 0.56 | -0.649 | 0.314 | -0.833 | -0.86 | 0.557 | -0.765 | 0.487 | 0.0485
2 | AAACAAACAUGGUGCACUUCUUU | -0.365 | 0.581 | 0.601 | -1.89 | 1.09 | 0.437 | -0.147 | -0.444 | 0.209 | 0.00827 | -0.367 | 1.82 | -1.41 | -0.293
3 | UGUGCAAAUCCAUGCAAAACUGA | -2.12 | -0.355 | 0.638 | -0.216 | 0.608 | -3.09 | -0.438 | -1.63 | -1.86 | -0.753 | 0.561 | 0.306 | 0.456 | 0.0709
4 | AAAGUGCAUCCUUUUAGAGGUUU | 0.526 | 1.67 | -0.372 | -1.16 | -0.148 | 0.904 | -0.233 | -0.233 | -1.97 | 0.434 | 0.961 | -0.589 | -0.0516 | 0.429
5 | AGUAUGUUCUUCCAGGACAGAAC | 0.181 | -0.607 | 0.576 | -0.575 | 0.243 | -0.169 | -2.15 | 0.113 | 0.712 | -1.01 | 0.574 | 0.482 | -0.447 | 0.258
6 | AAUAUUAUACAGUCAACCUCU | 0.391 | 3.57 | 0.0661 | 0 | -1.29 | 1.48 | -1.63 | -0.762 | -0.218 | 0.408 | 0.854 | -0.324 | -1.02 | 0.359
7 | CUGGAUGGCUCCUCCAUGUCU | 0.281 | 0.182 | -0.501 | -0.148 | -2.12 | 1.88 | -1.72 | -0.334 | 0.532 | 1.08 | 0.945 | -1.36 | 1.87 | 0.127
8 | UCAGUCUCAUCUGCAAAGAAG | -0.368 | -1.13 | 0.794 | -1.02 | 0.581 | 1.11 | -0.924 | 1.08 | -0.485 | 0.237 | 0.372 | 1.71 | -0.895 | -0.202
9 | UCGUGUCUUGUGUUGCAGCCG | 0.403 | -0.0902 | -0.116 | -0.0239 | -0.468 | 0.852 | -0.341 | -0.272 | 0.669 | -0.401 | -0.364 | 0.0252 | -0.112 | -0.142
10 | AGCUCGGUCUGAGGCCCCUCAG | 2.05 | 1.23 | -0.504 | 3.65 | 3.69 | -0.643 | 1.86 | 0.284 | 0.304 | -1.22 | 0.253 | -0.671 | 0.229 | 0.0655
11 | AUAAUACAUGGUUAACCUCUUU | -2.7 | 0.871 | 0.024 | 0.598 | -0.631 | 1.04 | -0.764 | -0.143 | 1.01 | -0.62 | -0.808 | 0 | -0.737 | -0.592
12 | UAAGUGCUUCCAUGUUUUGGUGA | 1.55 | 1.18 | -0.0521 | -1.44 | 1.03 | 0.317 | -0.208 | -0.478 | -1.01 | 0.453 | 0.567 | -0.457 | 0.733 | -0.0784
13 | UGGUUGACCAUAGAACAUGCGC | 2.61 | 2.11 | -0.769 | 3.19 | 3.51 | 1.49 | -0.794 | -0.568 | 2.68 | 1.74 | -0.743 | -1.23 | 0.184 | -0.14
14 | UAACACUGUCUGGUAACGAUGU | -5.66 | 0.173 | -0.268 | -5.06 | 0.104 | -0.465 | 0.575 | 0.337 | 0.219 | -0.223 | 0.00413 | -0.274 | 1.8 | -0.247
15 | UUUGUUCGUUCGGCUCGCGUGA | 0.164 | 0.323 | 0.135 | -0.751 | -0.809 | -0.313 | 1.05 | -0.635 | -0.574 | 0.0504 | -0.0777 | 0.52 | 1.7 | 0.275
16 | AUCAUGAUGGGCUCCUCGGUGU | 0.672 | -2.44 | -1.04 | 1.53 | 0.226 | -1.14 | -0.103 | 0.527 | 0.47 | -0.574 | -2.53 | -0.332 | 0.0291 | 0.202
17 | UCUCUGGAGGGAAGCACUUUCUG | -2.97 | -2.09 | 0.317 | -1.64 | -0.609 | -0.393 | 1.47 | -0.075 | -1.99 | -0.501 | 0.444 | 1.18 | 1.92 | 0.306

Row | Sequence | 3' UTR reporter interaction score (ZEB2) | 3' UTR reporter interaction score (NOTCH1) | 3' UTR reporter interaction score (MYC) | 3' UTR reporter interaction score (MYT1L) | 3' UTR reporter interaction score (RB1) | 3' UTR reporter interaction score (MYCN) | 3' UTR reporter interaction score (BRCA2) | 3' UTR reporter interaction score (HRAS) | 3' UTR reporter interaction score (MYB) | 3' UTR reporter interaction score (PHOX2B) | 3' UTR reporter interaction score (FBXW7) | 3' UTR reporter interaction score (EZH2) | 3' UTR reporter interaction score (PHF6) | 3' UTR reporter interaction score (TP53)
18 | UAAACGUGGAUGUACUUGCUUU | 0.846 | 0.553 | -1.34 | -0.58 | 0.153 | -0.319 | 0.489 | -0.799 | -0.172 | -0.628 | 0.998 | 0.463 | -1.71 | 0.196
19 | AGGCGGGGCGCCGCGGGACCGC | 0.258 | 0.236 | -0.234 | -0.425 | 0.467 | -0.386 | -0.123 | -0.439 | -0.412 | -0.317 | -0.475 | -1.53 | 1.42 | -0.353
20 | UCGUGCAUCCCUUUAGAGUGUU | -1.93 | -0.139 | -0.38 | -0.28 | 1.71 | 1.34 | 0.369 | -0.817 | -1.1 | -0.719 | 0.538 | 0.153 | 2.24 | -0.886
21 | AAUGACACGAUCACUCCCGUUGA | 0.878 | -1.98 | 0.235 | -0.645 | -0.373 | -0.341 | -1.49 | 0.792 | -0.032 | -0.699 | 0.139 | 0.0535 | -0.214 | 0.759
22 | AGGGUGUUUCUCUCAUCUCU | -0.283 | -1.24 | 0.84 | -2.32 | -0.774 | 1.22 | -0.403 | 0.396 | 1.44 | 2.27 | -0.794 | -0.619 | 1.32 | 0.571
23 | AUCCCUUGCAGGGGCUGUUGGGU | 1.78 | 0.359 | 0.108 | 0.613 | -0.201 | 0.104 | -0.445 | -0.0656 | 0.681 | -1.62 | -1.6 | 0.197 | -0.0289 | -0.855
24 | ACAGUCUGCUGAGGUUGGAGC | 1.65 | 0.0668 | -0.486 | -0.4 | -1.36 | 0.116 | 0.137 | -0.732 | -0.0786 | 0.189 | -0.12 | 0.0759 | 0.259 | -0.638
25 | AGCUGUCUGAAAAUGUCUU | -0.552 | -0.774 | 0.303 | 0.171 | 0.19 | -0.701 | -0.293 | -0.208 | -0.536 | 1.04 | 0.675 | -0.132 | -0.786 | 0.132
26 | AAAGUGCAUCUUUUUAGAGGAU | -0.325 | 0.996 | 0.685 | -0.436 | -0.176 | 1.77 | -0.243 | 0.493 | -2.04 | 0.606 | 0.857 | -0.581 | -0.0249 | 1.24
27 | AAUCCUUUGUCCCUGGGUGAGA | 0.439 | 1.42 | 0.916 | -2.16 | 0.615 | 0.972 | 0.853 | 0.171 | -0.9 | -0.304 | 0.455 | -0.257 | -0.0711 | -0.735
28 | AGGAGGCAGCGCUCUCAGGAC | 2.03 | -2.44 | -1.13 | 2.05 | 0.463 | 0.868 | -0.741 | -0.534 | 0.571 | 0.109 | -0.582 | -1.61 | 1.36 | -0.457
29 | ACUUACAGACAAGAGCCUUGCUC | -0.165 | 0.216 | 0.117 | -1.75 | -0.353 | -0.0923 | 0.948 | 1.57 | -2.25 | 1.47 | 1.72 | -1.69 | -1.11 | 0.219
30 | UAAAGUAAAUAUGCACCAAAA | -0.265 | 0.429 | 0.043 | -0.0291 | -0.322 | -0.59 | -0.0915 | 0.372 | -0.21 | 1.69 | -0.197 | 0.367 | -0.814 | 0.703
31 | AUCGUGCAUCCUUUUAGAGUGU | -2.58 | -0.741 | -0.764 | -0.261 | 0.712 | 1.14 | -0.461 | -1.03 | 0.368 | 0.0627 | -0.0607 | 0.0977 | 2.24 | -0.802
32 | CACACACUGCAAUUACUUUUGC | -2.35 | -1.12 | 0.144 | 0.0502 | -0.83 | 0.192 | 1.28 | 0.537 | -0.132 | 0.662 | -1.17 | 0.0197 | -0.242 | 0.266
33 | UCGGAUCCGUCUGAGCUUGGCU | 0.123 | 0.076 | -0.287 | -1.06 | -0.185 | 1.3 | 1.24 | 1.22 | -4.97 | -0.526 | 0.968 | 1.84 | -0.555 | -0.412
34 | AAUCAUACACGGUUGACCUAUU | -1.95 | -0.221 | -0.182 | 0.0899 | -0.342 | 0.277 | -0.246 | -0.256 | 0.393 | -0.199 | 0.544 | 0.236 | -0.4 | -0.0204
